Measured values as given in PubChem BioAssay AID296 (DTP/NCI, 2004).
Values joined by “and” are separate entries in the source; they are usually repeats but may differ in a detail not shown here. Equal entries are not always repeated. Results filed as inconclusive are left out.

Test system: MX-1 breast xenograft, nude mice, tumor weight T/C
Assay: NCI In Vivo Anticancer Drug Screen. Data for tumor model Human Mammary Carcinoma MX-1 Xenograft (intrarenal inoculation) in NU/NU Swiss (nude) mice
Settings: endpoint: mean tumor weight change, higher = larger tumour
Method in brief: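 Tumor-bearing mice were treated with test compound alongside a vehicle-treated control group. Survival or tumor size was measured, and activity is expressed as the treated-group value divided by the control-group value.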

[1] = dose: 8.0 mg/kg/injection, schedule: Q04DX003 (sc), vehicle: saline with Tween-80
[2] = dose: 16.0 mg/kg/injection, schedule: Q04DX003 (sc), vehicle: saline with Tween-80
[3] = dose: 100.0 mg/kg/injection, schedule: Q04DX003 (sc), vehicle: saline
[4] = dose: 75.0 mg/kg/injection, schedule: Q04DX003 (sc), vehicle: saline with Tween-80
[5] = dose: 150.0 mg/kg/injection, schedule: Q04DX003 (sc), vehicle: saline with Tween-80

## C[C@]12C=CC(=O)C=C1CC[C@@H]1[C@@H]2C(=O)C[C@@]2(C)[C@H]1CC[C@]2(O)C(=O)CO
dose: 300.0 mg/kg/injection, schedule: Q04DX003 (sc), vehicle: Klucel (hydroxypropylcellulose) (HPC)
  T/C: 40 % of control
dose: 600.0 mg/kg/injection, schedule: Q04DX003 (sc), vehicle: Klucel (hydroxypropylcellulose) (HPC)
  T/C: 73 % of control
dose: 1200.0 mg/kg/injection, schedule: Q04DX003 (sc), vehicle: Klucel (hydroxypropylcellulose) (HPC)
  T/C: 44 % of control
dose: 2400.0 mg/kg/injection, schedule: Q04DX003 (sc), vehicle: Klucel (hydroxypropylcellulose) (HPC)
  T/C: 29 % of control

## O=C(O)c1ccc(C(=O)O)c(C(=O)O)c1.[NH-]C1CCCCC1[NH-].[Pt+2]
dose: 3.12 mg/kg/injection, schedule: Q01DX010 (sc), vehicle: sodium bicarbonate
  T/C: 10 % of control and 27 % of control
dose: 6.25 mg/kg/injection, schedule: Q01DX010 (sc), vehicle: sodium bicarbonate
  T/C: 1 % of control and 2 % of control

## COC1/C=C\C=C(/C)C(=O)NC2=CC(=O)C=C(C2=O)C(OC)C(C)CC(OC)C(OC)C(C)/C=C(/C)C1OC(N)=O (stereo not given)
dose: 2.25 mg/kg/injection, schedule: Q04DX003 (sc), vehicle: Klucel (hydroxypropylcellulose) (HPC)
  T/C: 77 % of control
dose: 4.5 mg/kg/injection, schedule: Q04DX003 (sc), vehicle: Klucel (hydroxypropylcellulose) (HPC)
  T/C: 63 % of control
dose: 9.0 mg/kg/injection, schedule: Q04DX003 (sc), vehicle: Klucel (hydroxypropylcellulose) (HPC)
  T/C: 52 % of control

## Nc1nc(F)nc2c1ncn2C1OC(COP(=O)(O)O)C(O)C1O (stereo not given)
dose: 50.0 mg/kg/injection, schedule: Q01DX010 (sc), vehicle: saline
  T/C: 86 % of control
dose: 100.0 mg/kg/injection, schedule: Q01DX010 (sc), vehicle: saline
  T/C: 69 % of control
dose: 200.0 mg/kg/injection, schedule: Q01DX010 (sc), vehicle: saline
  T/C: 91 % of control

## O=c1[nH]c(=O)n(C2CC(O)C(CO)O2)cc1C(F)(F)F (stereo not given)
dose: 300.0 mg/kg/injection, schedule: Q04DX003 (sc), vehicle: saline
  T/C: 77 % of control
dose: 600.0 mg/kg/injection, schedule: Q04DX003 (sc), vehicle: saline
  T/C: 72 % of control
dose: 1200.0 mg/kg/injection, schedule: Q04DX003 (sc), vehicle: saline
  T/C: 43 % of control
dose: 2400.0 mg/kg/injection, schedule: Q04DX003 (sc), vehicle: saline
  T/C: 29 % of control

## CCCCC1CCCCCCc2[nH]c(/C=C3\N=C(c4ccc[nH]4)C=C3OC)cc21 (stereo not given)
dose: 4.0 mg/kg/injection, schedule: Q04DX003 (sc), vehicle: saline with Tween-80
  T/C: 82 % of control
[1]
  T/C: 107 % of control
[2]
  T/C: 105 % of control
dose: 32.0 mg/kg/injection, schedule: Q04DX003 (sc), vehicle: saline with Tween-80
  T/C: 80 % of control

## CC1=C[S+](c2ccccc2)c2cccc3cc4ccccc4c1c23 (stereo not given)
[1]
  T/C: 69 % of control
[2]
  T/C: 75 % of control

## COc1ccc(CC2C(=O)NC(C)C(=O)N(C)C3C(=O)N(C)C(Cc4ccc(O)c(c4)Oc4ccc(cc4)C3O)C(=O)NC(C)C(=O)NC(C)C(=O)N2C)cc1 (stereo not given)
dose: 0.5 mg/kg/injection, schedule: Q01DX010 (sc), vehicle: saline with Tween-80
  T/C: 78 % of control
dose: 1.0 mg/kg/injection, schedule: Q01DX010 (sc), vehicle: saline with Tween-80
  T/C: 51 % of control
dose: 2.0 mg/kg/injection, schedule: Q01DX010 (sc), vehicle: saline with Tween-80
  T/C: 34 % of control

## CC[As](=O)(O)CC
[3]
  T/C: 96 % of control
dose: 200.0 mg/kg/injection, schedule: Q04DX003 (sc), vehicle: saline
  T/C: 88 % of control

## O=c1[nH]cc(F)c(=O)[nH]1
dose: 10.0 mg/kg/injection, schedule: Q01DX010 (sc), vehicle: saline
  T/C: 67 % of control and 90 % of control
dose: 50.0 mg/kg/injection, schedule: Q04DX003 (sc), vehicle: saline
  T/C: 44 % of control and 54 % of control and 55 % of control
[3]
  T/C: 13 % of control

## Nc1nc(N)c2c(Cl)c(CNc3ccc(Cl)c(Cl)c3)ccc2n1
dose: 18.75 mg/kg/injection, schedule: Q04DX003 (sc), vehicle: saline with Tween-80
  T/C: 80 % of control
dose: 37.5 mg/kg/injection, schedule: Q04DX003 (sc), vehicle: saline with Tween-80
  T/C: 87 % of control
[4]
  T/C: 93 % of control
[5]
  T/C: 111 % of control

## C[Si](C)(C)n1nnn(-c2ccccc2)c1=O
[4]
  T/C: 90 % of control
[5]
  T/C: 71 % of control
dose: 600.0 mg/kg/injection, schedule: Q04DX003 (sc), vehicle: saline with Tween-80
  T/C: 91 % of control

## CCOC(C)C(/C=N/NC(N)=S)=NNC(N)=S (stereo not given)
dose: 100.0 mg/kg/injection, schedule: Q01DX010 (sc), vehicle: saline with Tween-80
  T/C: 167 % of control
dose: 200.0 mg/kg/injection, schedule: Q01DX010 (sc), vehicle: saline with Tween-80
  T/C: 123 % of control
dose: 800.0 mg/kg/injection, schedule: Q01DX010 (sc), vehicle: saline with Tween-80
  T/C: 96 % of control
